Results as given in ChEMBL document CHEMBL3991601, “The target landscape of clinical kinase drugs” (Science, 2017).
The source made the active and inactive calls. Cut-off read from the data, not from the text of the source, for most assays here: actives have a measured Kd and inactives only a lower limit.

Assays:
TGF-beta receptor type-2 = TGF-beta receptor type-2 (Homo sapiens, UniProt P37173)
[1] = target: T1, Serine/threonine-protein kinase 4 (Homo sapiens, UniProt Q13043)
T1 sequence (Q13043 whole entry): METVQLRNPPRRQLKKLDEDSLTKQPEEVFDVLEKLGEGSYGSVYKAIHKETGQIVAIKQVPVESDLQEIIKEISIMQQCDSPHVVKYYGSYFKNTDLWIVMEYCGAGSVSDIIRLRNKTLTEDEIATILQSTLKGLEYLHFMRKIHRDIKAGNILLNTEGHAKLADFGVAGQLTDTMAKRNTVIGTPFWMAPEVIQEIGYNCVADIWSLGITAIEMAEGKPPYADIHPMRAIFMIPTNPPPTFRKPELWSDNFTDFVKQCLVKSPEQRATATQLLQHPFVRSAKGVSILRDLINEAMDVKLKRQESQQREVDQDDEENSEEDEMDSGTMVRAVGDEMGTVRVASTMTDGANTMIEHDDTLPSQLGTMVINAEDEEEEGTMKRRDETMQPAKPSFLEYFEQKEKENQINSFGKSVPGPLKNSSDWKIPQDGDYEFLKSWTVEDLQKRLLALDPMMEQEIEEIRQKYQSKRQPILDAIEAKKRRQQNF

[2] = target: Mitogen-activated protein kinase 8 (Homo sapiens, UniProt P45983)
Chain of Mitogen-activated protein kinase 8 (P45983 whole entry): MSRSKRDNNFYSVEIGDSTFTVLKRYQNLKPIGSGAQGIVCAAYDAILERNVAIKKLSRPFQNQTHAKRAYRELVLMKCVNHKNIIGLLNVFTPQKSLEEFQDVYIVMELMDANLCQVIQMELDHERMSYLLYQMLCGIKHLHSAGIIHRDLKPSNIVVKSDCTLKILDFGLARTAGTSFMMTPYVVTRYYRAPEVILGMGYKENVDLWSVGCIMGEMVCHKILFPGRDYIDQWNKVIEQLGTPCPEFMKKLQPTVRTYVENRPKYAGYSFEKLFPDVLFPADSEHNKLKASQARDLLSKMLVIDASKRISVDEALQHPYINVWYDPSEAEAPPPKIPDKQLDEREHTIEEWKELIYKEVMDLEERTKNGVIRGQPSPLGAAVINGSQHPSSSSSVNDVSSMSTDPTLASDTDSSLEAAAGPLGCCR

[3] = target: T2, Dual specificity mitogen-activated protein kinase kinase 5 (Homo sapiens, UniProt Q13163)
T2 sequence (Q13163 whole entry): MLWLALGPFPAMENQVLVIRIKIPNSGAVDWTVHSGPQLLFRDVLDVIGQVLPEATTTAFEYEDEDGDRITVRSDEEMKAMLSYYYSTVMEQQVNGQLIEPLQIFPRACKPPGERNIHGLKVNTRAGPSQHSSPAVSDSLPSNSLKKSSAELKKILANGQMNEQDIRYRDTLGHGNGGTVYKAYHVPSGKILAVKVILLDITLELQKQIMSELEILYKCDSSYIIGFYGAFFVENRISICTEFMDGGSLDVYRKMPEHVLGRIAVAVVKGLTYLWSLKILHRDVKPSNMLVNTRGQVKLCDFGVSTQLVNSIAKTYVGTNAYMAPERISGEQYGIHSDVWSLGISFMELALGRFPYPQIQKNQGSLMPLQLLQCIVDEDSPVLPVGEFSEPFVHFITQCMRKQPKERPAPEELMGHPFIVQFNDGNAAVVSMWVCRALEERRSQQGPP

[4] = target: Mitogen-activated protein kinase kinase kinase kinase 4 (Homo sapiens, UniProt O95819)
Chain of Mitogen-activated protein kinase kinase kinase kinase 4 (O95819 whole entry): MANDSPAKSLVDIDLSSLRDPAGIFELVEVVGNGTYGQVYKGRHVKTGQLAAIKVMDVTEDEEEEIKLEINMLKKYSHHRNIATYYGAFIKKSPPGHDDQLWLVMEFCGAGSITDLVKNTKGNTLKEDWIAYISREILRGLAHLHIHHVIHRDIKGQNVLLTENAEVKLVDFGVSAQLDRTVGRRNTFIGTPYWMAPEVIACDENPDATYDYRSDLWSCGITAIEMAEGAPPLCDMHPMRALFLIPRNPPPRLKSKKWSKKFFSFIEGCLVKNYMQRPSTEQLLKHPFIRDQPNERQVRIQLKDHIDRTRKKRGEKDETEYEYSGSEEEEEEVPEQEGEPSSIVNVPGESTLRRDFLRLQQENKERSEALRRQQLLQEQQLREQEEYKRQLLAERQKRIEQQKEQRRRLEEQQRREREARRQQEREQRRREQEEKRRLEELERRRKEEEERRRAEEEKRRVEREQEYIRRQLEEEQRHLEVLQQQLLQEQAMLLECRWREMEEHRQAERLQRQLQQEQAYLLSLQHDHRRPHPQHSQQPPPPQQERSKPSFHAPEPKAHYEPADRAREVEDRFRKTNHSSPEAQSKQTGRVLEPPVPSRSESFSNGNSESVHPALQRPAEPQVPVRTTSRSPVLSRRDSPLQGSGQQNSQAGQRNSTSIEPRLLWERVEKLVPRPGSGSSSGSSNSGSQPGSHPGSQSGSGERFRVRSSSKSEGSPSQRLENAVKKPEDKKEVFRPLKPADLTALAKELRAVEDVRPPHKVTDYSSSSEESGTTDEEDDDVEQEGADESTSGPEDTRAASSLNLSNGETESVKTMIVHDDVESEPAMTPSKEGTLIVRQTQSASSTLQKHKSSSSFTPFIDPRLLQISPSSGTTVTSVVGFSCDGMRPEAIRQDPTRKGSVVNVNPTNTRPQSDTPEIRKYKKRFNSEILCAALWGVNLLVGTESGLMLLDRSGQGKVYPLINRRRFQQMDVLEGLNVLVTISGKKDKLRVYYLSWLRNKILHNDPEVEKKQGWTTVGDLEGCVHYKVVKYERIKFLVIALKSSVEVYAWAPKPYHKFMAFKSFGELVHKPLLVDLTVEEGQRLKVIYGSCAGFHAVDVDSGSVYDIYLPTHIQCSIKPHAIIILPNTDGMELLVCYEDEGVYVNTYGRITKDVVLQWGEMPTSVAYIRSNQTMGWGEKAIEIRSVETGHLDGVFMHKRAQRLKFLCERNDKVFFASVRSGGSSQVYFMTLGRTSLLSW

[5] = target: Receptor-interacting serine/threonine-protein kinase 2 (Homo sapiens, UniProt O43353)
Chain of Receptor-interacting serine/threonine-protein kinase 2 (O43353 whole entry): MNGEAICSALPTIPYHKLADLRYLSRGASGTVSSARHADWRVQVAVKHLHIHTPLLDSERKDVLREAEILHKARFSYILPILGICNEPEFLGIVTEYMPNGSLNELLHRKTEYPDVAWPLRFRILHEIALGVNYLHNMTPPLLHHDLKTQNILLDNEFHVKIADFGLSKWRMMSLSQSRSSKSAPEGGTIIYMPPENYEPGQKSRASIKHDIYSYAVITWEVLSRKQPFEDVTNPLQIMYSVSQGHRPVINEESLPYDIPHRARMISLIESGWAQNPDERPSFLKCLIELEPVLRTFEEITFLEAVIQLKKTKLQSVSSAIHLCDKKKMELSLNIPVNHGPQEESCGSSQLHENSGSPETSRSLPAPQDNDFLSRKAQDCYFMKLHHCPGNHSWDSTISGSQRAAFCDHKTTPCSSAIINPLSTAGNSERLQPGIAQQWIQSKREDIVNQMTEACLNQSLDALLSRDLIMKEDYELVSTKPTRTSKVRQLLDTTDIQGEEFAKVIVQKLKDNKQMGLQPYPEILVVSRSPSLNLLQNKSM

[6] = target: Tyrosine-protein kinase FRK (Homo sapiens, UniProt P42685)
Chain of Tyrosine-protein kinase FRK (P42685 whole entry): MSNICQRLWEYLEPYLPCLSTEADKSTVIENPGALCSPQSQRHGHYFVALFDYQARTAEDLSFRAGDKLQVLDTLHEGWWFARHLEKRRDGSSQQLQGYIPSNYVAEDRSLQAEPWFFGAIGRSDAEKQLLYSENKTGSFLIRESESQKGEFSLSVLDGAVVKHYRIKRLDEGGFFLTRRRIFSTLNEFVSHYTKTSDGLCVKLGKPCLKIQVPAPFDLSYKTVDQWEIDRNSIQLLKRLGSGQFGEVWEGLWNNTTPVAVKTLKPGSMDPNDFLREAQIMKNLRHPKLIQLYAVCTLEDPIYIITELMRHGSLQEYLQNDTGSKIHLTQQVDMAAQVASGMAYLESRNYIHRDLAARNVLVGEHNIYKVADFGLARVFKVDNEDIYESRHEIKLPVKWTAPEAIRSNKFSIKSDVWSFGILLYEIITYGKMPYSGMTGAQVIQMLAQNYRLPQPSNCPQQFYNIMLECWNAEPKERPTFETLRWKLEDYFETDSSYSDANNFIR

Wee1-like protein kinase = Wee1-like protein kinase (Homo sapiens, UniProt P30291)
Chain of Wee1-like protein kinase (P30291 whole entry): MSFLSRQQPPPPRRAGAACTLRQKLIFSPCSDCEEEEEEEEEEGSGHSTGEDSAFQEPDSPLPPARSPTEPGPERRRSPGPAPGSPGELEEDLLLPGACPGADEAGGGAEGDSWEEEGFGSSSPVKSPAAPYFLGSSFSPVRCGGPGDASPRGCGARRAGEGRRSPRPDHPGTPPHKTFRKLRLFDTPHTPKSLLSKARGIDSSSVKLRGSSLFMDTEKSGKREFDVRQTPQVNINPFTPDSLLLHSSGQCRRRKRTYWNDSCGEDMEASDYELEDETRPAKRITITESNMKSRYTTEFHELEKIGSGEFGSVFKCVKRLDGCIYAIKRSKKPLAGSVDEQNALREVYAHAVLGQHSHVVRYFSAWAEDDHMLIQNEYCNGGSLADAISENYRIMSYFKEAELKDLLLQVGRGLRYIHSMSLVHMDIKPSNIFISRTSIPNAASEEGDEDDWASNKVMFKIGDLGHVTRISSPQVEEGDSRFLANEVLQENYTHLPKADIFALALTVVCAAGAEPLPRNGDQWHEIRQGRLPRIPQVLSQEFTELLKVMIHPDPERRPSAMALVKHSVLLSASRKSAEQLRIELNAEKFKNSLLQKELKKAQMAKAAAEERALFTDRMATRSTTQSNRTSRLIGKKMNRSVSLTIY

[7] = target: T3, Mitogen-activated protein kinase kinase kinase 2 (Homo sapiens, UniProt Q9Y2U5)
T3 sequence (Q9Y2U5 whole entry): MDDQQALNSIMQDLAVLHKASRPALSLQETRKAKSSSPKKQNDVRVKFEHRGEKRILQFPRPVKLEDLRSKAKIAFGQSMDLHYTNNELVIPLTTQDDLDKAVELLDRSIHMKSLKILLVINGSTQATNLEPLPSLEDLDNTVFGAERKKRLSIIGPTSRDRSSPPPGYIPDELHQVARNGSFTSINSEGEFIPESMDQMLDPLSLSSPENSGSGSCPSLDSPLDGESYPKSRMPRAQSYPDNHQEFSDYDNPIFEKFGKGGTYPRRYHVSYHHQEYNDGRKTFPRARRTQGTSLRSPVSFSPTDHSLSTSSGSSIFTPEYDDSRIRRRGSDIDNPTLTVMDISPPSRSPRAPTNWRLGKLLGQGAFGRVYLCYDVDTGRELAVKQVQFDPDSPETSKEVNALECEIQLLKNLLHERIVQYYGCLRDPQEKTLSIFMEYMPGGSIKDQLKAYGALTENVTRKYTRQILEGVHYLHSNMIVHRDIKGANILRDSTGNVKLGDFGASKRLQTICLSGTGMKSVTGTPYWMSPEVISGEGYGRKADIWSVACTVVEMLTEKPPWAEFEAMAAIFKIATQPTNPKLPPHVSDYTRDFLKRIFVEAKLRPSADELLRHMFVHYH

[8] = target: Dual specificity tyrosine-phosphorylation-regulated kinase 1A (Homo sapiens, UniProt Q13627)
[9] = target: AP2-associated protein kinase 1 (Homo sapiens, UniProt Q2M2I8)
Chain of AP2-associated protein kinase 1 (Q2M2I8 whole entry): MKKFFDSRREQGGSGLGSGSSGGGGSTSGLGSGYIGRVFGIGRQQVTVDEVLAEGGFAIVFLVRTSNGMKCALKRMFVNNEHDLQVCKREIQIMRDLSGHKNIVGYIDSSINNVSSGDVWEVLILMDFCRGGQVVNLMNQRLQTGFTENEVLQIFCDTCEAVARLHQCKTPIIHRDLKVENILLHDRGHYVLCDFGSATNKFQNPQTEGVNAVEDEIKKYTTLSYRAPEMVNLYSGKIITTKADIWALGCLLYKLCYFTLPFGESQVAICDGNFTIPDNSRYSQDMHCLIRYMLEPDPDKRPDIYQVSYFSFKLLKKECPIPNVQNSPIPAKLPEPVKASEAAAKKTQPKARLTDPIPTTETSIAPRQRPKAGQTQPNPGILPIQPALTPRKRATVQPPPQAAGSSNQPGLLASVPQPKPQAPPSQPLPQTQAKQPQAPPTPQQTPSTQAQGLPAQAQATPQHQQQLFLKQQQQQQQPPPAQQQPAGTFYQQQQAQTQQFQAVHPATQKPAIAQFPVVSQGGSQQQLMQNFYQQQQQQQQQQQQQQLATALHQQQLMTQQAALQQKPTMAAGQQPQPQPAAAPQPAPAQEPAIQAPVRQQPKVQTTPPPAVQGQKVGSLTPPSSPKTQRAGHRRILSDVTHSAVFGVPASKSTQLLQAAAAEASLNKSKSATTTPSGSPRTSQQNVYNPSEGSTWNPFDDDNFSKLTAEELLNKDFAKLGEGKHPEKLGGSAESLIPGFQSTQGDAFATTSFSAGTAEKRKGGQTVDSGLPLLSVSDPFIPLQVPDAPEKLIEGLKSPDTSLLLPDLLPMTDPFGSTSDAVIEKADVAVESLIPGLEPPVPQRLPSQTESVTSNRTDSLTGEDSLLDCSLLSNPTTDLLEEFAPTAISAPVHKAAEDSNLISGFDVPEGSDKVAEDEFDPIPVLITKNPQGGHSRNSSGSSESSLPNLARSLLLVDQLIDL

[10] = target: T4, Peroxisomal acyl-coenzyme A oxidase 1 (Homo sapiens, UniProt Q15067)
T4 sequence (Q15067 whole entry): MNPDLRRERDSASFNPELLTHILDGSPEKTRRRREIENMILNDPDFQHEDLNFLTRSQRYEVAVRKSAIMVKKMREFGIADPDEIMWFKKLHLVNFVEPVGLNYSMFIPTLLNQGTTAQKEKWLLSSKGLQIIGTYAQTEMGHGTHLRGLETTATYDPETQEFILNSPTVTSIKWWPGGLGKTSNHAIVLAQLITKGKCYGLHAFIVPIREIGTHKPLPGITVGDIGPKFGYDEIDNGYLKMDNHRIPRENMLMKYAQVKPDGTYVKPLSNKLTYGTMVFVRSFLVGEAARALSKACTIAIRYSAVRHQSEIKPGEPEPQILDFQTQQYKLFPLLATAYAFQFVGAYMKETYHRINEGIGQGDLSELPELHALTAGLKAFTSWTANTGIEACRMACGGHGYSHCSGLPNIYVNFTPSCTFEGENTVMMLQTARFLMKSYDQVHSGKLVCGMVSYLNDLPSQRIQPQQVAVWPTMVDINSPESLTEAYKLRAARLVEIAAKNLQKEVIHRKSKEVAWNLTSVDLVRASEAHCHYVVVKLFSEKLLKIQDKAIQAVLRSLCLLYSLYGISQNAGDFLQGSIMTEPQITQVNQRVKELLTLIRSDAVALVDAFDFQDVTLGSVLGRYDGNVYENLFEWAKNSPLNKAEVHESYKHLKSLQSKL
Note: in the data inactive means no Kd found up to 30 µM.

Chain of TGF-beta receptor type-2 (P37173 whole entry): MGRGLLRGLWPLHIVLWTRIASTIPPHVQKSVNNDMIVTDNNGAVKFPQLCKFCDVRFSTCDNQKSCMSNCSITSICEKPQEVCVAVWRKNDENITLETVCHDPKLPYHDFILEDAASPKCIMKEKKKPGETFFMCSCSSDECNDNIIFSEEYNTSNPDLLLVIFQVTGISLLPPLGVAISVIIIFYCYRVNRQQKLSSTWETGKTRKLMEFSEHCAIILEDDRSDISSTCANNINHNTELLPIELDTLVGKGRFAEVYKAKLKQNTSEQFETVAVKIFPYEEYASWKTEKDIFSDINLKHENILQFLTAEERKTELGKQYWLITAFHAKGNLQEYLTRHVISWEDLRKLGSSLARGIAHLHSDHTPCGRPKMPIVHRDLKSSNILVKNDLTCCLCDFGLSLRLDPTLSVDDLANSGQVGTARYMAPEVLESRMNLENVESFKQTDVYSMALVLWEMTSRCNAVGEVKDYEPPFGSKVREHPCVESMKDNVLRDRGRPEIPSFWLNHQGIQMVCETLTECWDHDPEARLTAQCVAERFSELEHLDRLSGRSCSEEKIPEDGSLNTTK

Row | Compound | Kd (TGF-beta receptor type-2) | Kd [1] | Kd [2] | Kd [3] | Kd [4] | Kd [5] | Kd [6] | Kd (Wee1-like protein kinase) | Kd [7] | Kd [8] | Kd [9] | Kd [10]
1 | CCN1CCN(Cc2ccc(Nc3ncc(F)c(-c4cc(F)c5nc(C)n(C(C)C)c5c4)n3)nc2)CC1 [ABEMACICLIB] | > 30 µM (inactive) | > 30 µM (inactive) | 3.76 µM (active) | > 30 µM (inactive) | 1.32 µM (active) | > 30 µM (inactive) | > 30 µM (inactive) | > 30 µM (inactive) | > 30 µM (inactive) | – | – | –
2 | C=CCn1c(=O)c2cnc(Nc3ccc(N4CCN(C)CC4)cc3)nc2n1-c1cccc(C(C)(C)O)n1 [ADAVOSERTIB] | > 30 µM (inactive) | > 30 µM (inactive) | – | > 30 µM (inactive) | – | > 30 µM (inactive) | > 30 µM (inactive) | – | > 30 µM (inactive) | > 30 µM (inactive) | > 30 µM (inactive) | > 30 µM (inactive)
3 | CN(C)C/C=C/C(=O)Nc1cc2c(Nc3ccc(F)c(Cl)c3)ncnc2cc1O[C@H]1CCOC1 [AFATINIB] | – | – | – | – | – | – | – | – | – | – | – | > 30 µM (inactive)
4 | NC[C@@](O)(c1ccc(Cl)cc1)c1ccc(-c2cn[nH]c2)cc1 [AT-13148] | – | > 30 µM (inactive) | > 30 µM (inactive) | > 30 µM (inactive) | > 30 µM (inactive) | > 30 µM (inactive) | > 30 µM (inactive) | > 30 µM (inactive) | > 30 µM (inactive) | – | > 30 µM (inactive) | > 30 µM (inactive)
5 | CCN(CCCOc1ccc2c(Nc3cc(CC(=O)Nc4cccc(F)c4)n[nH]3)ncnc2c1)CCOP(=O)(O)O [BARASERTIB] | > 30 µM (inactive) | > 30 µM (inactive) | – | 0.082 µM (active) | – | 1.85 µM (active) | > 30 µM (inactive) | > 30 µM (inactive) | > 30 µM (inactive) | – | > 30 µM (inactive) | > 30 µM (inactive)
6 | CCOc1ccn(-c2ccc(F)cc2)c(=O)c1C(=O)Nc1ccc(Oc2ccnc(N)c2Cl)c(F)c1 [BMS-777607] | > 30 µM (inactive) | – | > 30 µM (inactive) | 2.08 µM (active) | – | > 30 µM (inactive) | 0.33 µM (active) | > 30 µM (inactive) | > 30 µM (inactive) | > 30 µM (inactive) | > 30 µM (inactive) | –
7 | c1cc(OCCN2CCCCC2)cc(-c2n[nH]c3ccc(-c4nc[nH]n4)cc23)c1 [CC-401] | > 30 µM (inactive) | > 30 µM (inactive) | 0.636 µM (active) | > 30 µM (inactive) | 4.17 µM (active) | > 30 µM (inactive) | > 30 µM (inactive) | > 30 µM (inactive) | > 30 µM (inactive) | – | 2.61 µM (active) | > 30 µM (inactive)
8 | COc1cc2c(Oc3ccc4[nH]c(C)cc4c3F)ncnc2cc1OCCCN1CCCC1 [CEDIRANIB] | – | – | – | – | – | – | – | – | – | – | – | > 30 µM (inactive)
9 | Cn1c(=O)n(-c2ccc(C(C)(C)C#N)cc2)c2c3cc(-c4cnc5ccccc5c4)ccc3ncc21 [DACTOLISIB] | > 30 µM (inactive) | > 30 µM (inactive) | – | > 30 µM (inactive) | – | > 30 µM (inactive) | > 30 µM (inactive) | > 30 µM (inactive) | > 30 µM (inactive) | – | > 30 µM (inactive) | > 30 µM (inactive)
10 | O=S(=O)(c1cccc2cnccc12)N1CCCNCC1 [FASUDIL] | > 30 µM (inactive) | > 30 µM (inactive) | – | > 30 µM (inactive) | – | > 30 µM (inactive) | > 30 µM (inactive) | > 30 µM (inactive) | > 30 µM (inactive) | > 30 µM (inactive) | > 30 µM (inactive) | > 30 µM (inactive)
11 | C[C@]1(O)C[C@@H](c2nc(-c3ccc4ccc(-c5ccccc5)nc4c3)c3c(N)nccn32)C1 [LINSITINIB] | > 30 µM (inactive) | > 30 µM (inactive) | – | 6.56 µM (active) | – | 1.36 µM (active) | – | > 30 µM (inactive) | > 30 µM (inactive) | – | > 30 µM (inactive) | > 30 µM (inactive)
12 | N#CCNC(=O)c1ccc(-c2ccnc(Nc3ccc(N4CCOCC4)cc3)n2)cc1 [MOMELOTINIB] | > 30 µM (inactive) | > 30 µM (inactive) | – | > 30 µM (inactive) | – | > 30 µM (inactive) | > 30 µM (inactive) | – | > 30 µM (inactive) | > 30 µM (inactive) | 0.004 µM (active) | –
13 | CC1(C)CNc2cc(NC(=O)c3cccnc3NCc3ccncc3)ccc21 [MOTESANIB] | – | – | – | – | – | – | – | – | – | – | – | > 30 µM (inactive)
14 | CN(c1ncccc1CNc1nc(Nc2ccc3c(c2)CC(=O)N3)ncc1C(F)(F)F)S(C)(=O)=O [PF-00562271] | > 30 µM (inactive) | 5.93 µM (active) | – | > 30 µM (inactive) | – | > 30 µM (inactive) | – | > 30 µM (inactive) | > 30 µM (inactive) | – | > 30 µM (inactive) | > 30 µM (inactive)
15 | COCCN1CCN(Cc2ccc(-c3n[nH]c4c3C(=O)c3c(NC(=O)NN5CCOCC5)cccc3-4)cc2)CC1 [RGB-286638] | 0.08 µM (active) | > 30 µM (inactive) | 0.731 µM (active) | 0.535 µM (active) | 0.127 µM | > 30 µM (inactive) | > 30 µM (inactive) | > 30 µM (inactive) | > 30 µM (inactive) | – | 0.022 µM (active) | > 30 µM (inactive)
16 | Cn1cnc2c(F)c(Nc3ccc(Br)cc3Cl)c(C(=O)NOCCO)cc21 [SELUMETINIB] | – | – | – | – | – | – | – | – | – | – | – | > 30 µM (inactive)
17 | O=C(O)c1ccc2c(c1)nc(Nc1cccc(Cl)c1)c1ccncc12 [SILMITASERTIB] | > 30 µM (inactive) | > 30 µM (inactive) | > 30 µM (inactive) | > 30 µM (inactive) | > 30 µM (inactive) | > 30 µM (inactive) | > 30 µM (inactive) | > 30 µM (inactive) | > 30 µM (inactive) | – | > 30 µM (inactive) | –
18 | CN1CCN(c2nc(C3=C(c4c[nH]c5ccccc45)C(=O)NC3=O)c3ccccc3n2)CC1 [SOTRASTAURIN] | > 30 µM (inactive) | > 30 µM (inactive) | > 30 µM (inactive) | > 30 µM (inactive) | – | > 30 µM (inactive) | > 30 µM (inactive) | > 30 µM (inactive) | > 30 µM (inactive) | > 30 µM (inactive) | > 30 µM (inactive) | –
19 | COc1cc2c(N3CCN(C(=O)Nc4ccc(OC(C)C)cc4)CC3)ncnc2cc1OCCCN1CCCCC1 [TANDUTINIB] | – | – | – | – | – | – | – | – | – | – | – | > 30 µM (inactive)
